Read-outs that look alike come from different tables or passages of the source.
Key:
[1] = test system: 60 clinical P. aeruginosa isolates; assay: Antibiotic susceptibility testing, NEG MIC Type 30 panel on MicroScan WalkAway-96 SI, MICs interpreted according to NCCLS guidelines; format: cell-based, Pseudomonas aeruginosa; conditions: for MIC: Pseudomonas aeruginosa, read-out: 60 MIC
Excerpt: The wild-type reference strain P. aeruginosa PAO1 was obtained from the ATCC (AT47085). The other P. aeruginosa strains were collected from patients at the Robert Bosch Hospital in Stuttgart, Germany. They were recovered from respiratory samples (n=51), swabs (n=5), urine (n=2) and faeces (n=2). All isolates were identified with the API 20NE system (bioMerieux, Marcy l'Etoile, France) and the NEG Breakpoint Combo Type 30 panel on the MicroScan WalkAway®-96 SI system (Dade Behring, Liederbach, Germany). All bacterial strains were either routinely cultured at 37° C. on Mueller-Hinton (MH) agar or grown in Luria Bertani broth (LB).
(§1) The antibiotic susceptibility was determined with the NEG MIC Type 30 panel on the MicroScan WalkAway®-96 SI system. The MICs were interpreted according to the NCCLS guidelines.
The test collective of P. aeruginosa isolates was recovered from three intensive care units (ICU) or other hospital wards as far as an unusual multidrug resistance was observed. […] 4.

[2] = test system: 3 consecutive Pseudomonas aeruginosa isolates from the same patient; assay: Phenotypic susceptibility profile of 3 consecutive isolates from the same patient; format: cell-based; conditions: S/R phenotype
Experimental: as §1

[3] = test system: 60 clinical P. aeruginosa isolates; parameters: species or system Pseudomonas aeruginosa; conditions: predicted from mutations and resistance genes found by array in 60 isolates
Experimental: The 60 P. aeruginosa isolates were tested with the array applying the same hybridization conditions. Tab.
In order to compare genotype and phenotype based resistance profiles, we calculated a cumulative resistance rate against different groups of antibiotics based on the array data (Tab. 6).

[4] = Table 3, P. aeruginosa test collective
[5] = Table 6, MIC tied to the resistant isolates, NCCLS interpretation
[6] = Table 6, phenotypic resistance rate

Compound	% of resistant isolates out of 60 [1, 4] [%]	Number of resistant isolates out of 60 [1, 4]	60 MIC [1, 5] [µg/mL]	Number of resistant isolates out of 60 ([1]; Table 6, phenotypic resistance)	% of resistant isolates out of 60 [1, 6] [%]	MIC [1] [µg/mL]	Susceptibility profile, Isolate 2 ([2]; collected one week after the first isolate)	Susceptibility profile, Isolate 1 ([2]; first isolate)	Susceptibility profile, Isolate 3 ([2]; last of three isolates collected within three weeks)	susceptibility rate ([1]; test collective of isolates)	resistance rate ([1]; test collective of isolates) [%]	Cumulative resistance predicttion deduced from array [3] [%]	MIC [1, 5] [µg/mL]
CC(C)(O/N=C(\C(=O)N[C@@H]1C(=O)N2C(C(=O)[O-])=C(C[n+]3ccccc3)CS[C@H]12)c1csc(N)n1)C(=O)O [Ceftazidim, ceftazidime]	33	20	>16	20	33	–	–	–	–	–	–	–	–
C[C@H]1COc2c(N3CCN(C)CC3)c(F)cc3c(=O)c(C(=O)O)cn1c23 [Levofloxacin, levofloxacin]	43	26	–	26	43	> 4	–	–	–	–	–	–	–
NC[C@H]1O[C@H](O[C@H]2[C@H](O)[C@@H](O[C@H]3O[C@H](CO)[C@@H](O)[C@H](N)[C@H]3O)[C@H](N)C[C@@H]2N)[C@H](N)C[C@@H]1O [Tobramycin, tobramycin]	10	6	–	6	10	> 8	susceptible	susceptible	resistance	–	–	–	–
C[C@@H](O)[C@H]1C(=O)N2C(C(=O)O)=C(SCCN=CN)C[C@H]12 [Imipenem, imipenem]	45	27	–	27	45	> 8	–	–	–	less than 55%	–	–	–
colistin	0	0	–	0	0	–	–	–	–	–	0	0	–
CCN1CCN(C(=O)N[C@@H](C(=O)N[C@@H]2C(=O)N3[C@@H]2SC(C)(C)[C@@H]3C(=O)O)c2ccccc2)C(=O)C1=O [Piperacillin, piperacillin]	35	21	–	21	35	–	–	–	–	–	–	38	> 64
gentamicin	37	22	>8	22	37	–	–	–	–	–	–	45	–
NCC[C@H](O)C(=O)N[C@@H]1C[C@H](N)[C@@H](O[C@H]2O[C@H](CN)[C@@H](O)[C@H](O)[C@H]2O)[C@H](O)[C@H]1O[C@H]1O[C@H](CO)[C@@H](O)[C@H](N)[C@H]1O [Amikacin, amikacin]	17	10	–	10	17	> 32	–	–	–	–	–	–	–

Source: patent publication US20060211002A1, “Antibiotic susceptibility and virulence factor detection in Pseudomonas aeruginosa” (priority 2005, published 2006)
